# Data taken from US20150250786A1, “PYRIMIDINE HYDROXY AMIDE COMPOUNDS AS PROTEIN DEACETYLASE INHIBITORS AND METHODS OF USE THEREOF” (THE TRUSTEES OF THE UNIVERSITY OF PENNSYLVANIA, priority 2012, published 2015).
# Where “and” joins values, the source holds several entries; their conditions need not be identical. Identical values can stand only once. Like-named read-outs stand apart in the source and are kept apart here.
# Experiments:
# [1] = test system: α-tubulin K40 acetylation in cortex, hippocampus, DRN, cerebellum; assay: α-tubulin acetylation in brain regions after subchronic administration, WT and HDAC6 KO mice; assay type: in vivo, mouse
# Protocol: Results are shown as percent change normalized to the vehicle treatment condition. The horizontal hard line depicts average and the dotted lines depict SEM of the vehicle treated wells. Representative Western blot images are presented. […] Representative Western blot images are presented. […] […] The changes in tubulin acetylation were measured in tissue lysates from cortex (ctx), hippocampus (Hpc), dorsal Raphe nucleus (DRN) and cerebellum (cb). The tubulin acetylation levels in drug-treated mice are expressed as percent change of the vehicle-treated mice of the corresponding genotype. The horizontal lines depict the average tubulin acetylation±SEM in the vehicle treated mice. The representative Western blot images show the changes induced by each drug treatment in the hippocampus (left column) and dorsal raphe (right column) of WT and HDAC6 KO mice.
# mice [2] = assay: Chronic social defeat (CSD) and social interaction test; assay type: in vivo, mouse; details: compound 73 5 mg/kg
# Protocol: Additionally, when combined with a dose of Citalopram with lower activity, these compounds seemed to have an additive effect (See FIG. 10). The dose of Citalopram chosen for this experiment was based on literature stating 2 mg/kg should be subactive, but this dose was found still showing an effect. Mice then underwent chronic social defeat stress, in which the mice are exposed to an aggressive resident mouse for 5 minutes daily for 10 days and are then tested on the 11th day in the social interaction test. Mice treated with vehicle for 20 total days, beginning 10 days before the defeat, show reduced time spent in the interaction zone when a target mouse is present when compared with control mice. […] The percent of mice found to be resilient, defined as spending more time in the interaction zone than the lowest control (i.e. ˜52 s), is higher in HDAC6 inhibitor groups. All behavior testing done using NIH Swiss mice, age 6-10 weeks. Tukey post-hoc analysis: * P=0.01 to 0.05, ** P=0.001-0.01, ***P<0.001 compared with vehicle treated mice.
# The effects were observed 30 minutes after acute 50 mg/kg i.p. injection, but not for the lower dose (5 mg/kg). Combination of subactive doses of the HDAC6 selective inhibitors (5 mg/kg) and citalopram (0.5 mg/kg) produced robust potentiation of anti-immobility activity (n=8-29 per condition). […] No difference was observed between HDAC6 WT and KO when treated with the vehicle (n=6-15 per condition). FIG. 16c is a timeline showing treatment period, social defeat and social interaction (SI) testing.
# A pro-resilient phenotype in the mouse CSD paradigm after serotonin-selective KO of HDAC6 was previously reported (Espallergues et al, 2012). Whether a chronic pharmacological inhibition of HDAC6 can replicate that phenotype is studied. […] On day 21, 24 h after the last injection, the mice were tested in the social interaction test. […] Significant effects were also observed when data was evaluated in terms of proportion of mice reaching criterion for resiliency.
# [3] = test system: RN46A-B14 serotonergic cell line; assay: Histone H3K9 acetylation in RN46A-B14 cells (Western blot); assay type: cell-based, rat; details: 2.5 μM, 4 hours
# mice [4] = assay: Elevated plus maze (EPM); assay type: in vivo, mouse; details: acute administration
# mice [5] = assay: Marble-burying task; assay type: in vivo, mouse; details: acute administration
# [6] = test system: RN46A-B14 serotonergic cell line; assay: α-tubulin K40 acetylation in RN46A-B14 cells (Western blot); assay type: cell-based, rat; details: 4 hours; TSA 0.6 μM, others 2.5 μM
# Protocol: In FIG. 3, it was observed that subchronic treatment, consisting of 5 treatments at 48, 28, 24, 4 and ½ hours before sacrifice, led to greater increase in tubulin acetylation than did chronic treatment of 1 injection/day for 21 days. For cell culture, RN46B cells were treated for with 0.25, 2.5 or 25 μM drug in DMSO for 1, 4 or 24 hours as indicated. Tukey post-hoc analysis: * P=0.01 to 0.05, ** P=0.001-0.01, ***P<0.001 when compared with vehicle treatment.
# Results are shown as percent change normalized to the vehicle treatment condition. The horizontal hard line depicts average and the dotted lines depict SEM of the vehicle treated wells. Representative Western blot images are presented. […] Representative Western blot images are presented. […] The drugs (5 mg/kg) were administered subchronically (at 24 h, 4 h and 30 min prior to sacrifice) to HDAC6 KO and WT littermates. The changes in tubulin acetylation were measured in tissue lysates from cortex (ctx), hippocampus (Hpc), dorsal Raphe nucleus (DRN) and cerebellum (cb). The tubulin acetylation levels in drug-treated mice are expressed as percent change of the vehicle-treated mice of the corresponding genotype. The horizontal lines depict the average tubulin acetylation±SEM in the vehicle treated mice. The representative Western blot images show the changes induced by each drug treatment in the hippocampus (left column) and dorsal raphe (right column) of WT and HDAC6 KO mice.
# In contrast to the class I isoforms HDAC2 and 3, which are expressed highly and ubiquitously in the mouse brain, HDAC6 mRNA expression appears to be restricted to a small number of brain areas, with highest signal observed in DRN (FIG. 13f). […] No changes in total α-tubulin expression were detected (FIG. 14a).
# [7] = test system: NIH Swiss mice; C57BL/6J HDAC6 WT and KO mice; assay: Tail suspension test (TST); assay type: in vivo, mouse; details: for immobility in TST: NIH Swiss mice
# [8] = Body weight gain during chronic treatment; assay type: in vivo, mouse; details: 4 weeks of treatment
# [9] = test system: α-tubulin acetylation in mouse whole brain lysates; assay: α-tubulin acetylation in whole brain lysates after single i.p. administration; assay type: in vivo; details: compound 73 5 mg/kg, compound 101 50 mg/kg, tubastatin A 10 mg/kg, 30 min, 1 h, 4 h
# [10] = Pharmacokinetics and brain bio-distribution in mice; assay type: in vivo, mouse; details: mouse; for Kp: brain, calculated over 2 hours
# Protocol: […] Plasma samples were taken from all mice upon sacrifice. Brain samples were taken from the mice sacrificed at 5 and 15 minutes and 1 and 4 hours. The brain samples were homogenized in PBS and centrifuged at 14000 rpm for 5 minutes. The supernatant from the brain homogenate and the plasma samples were injected onto a LC/MS/MS for analysis. The compound level in the samples was determined by a standard curve in the appropriate matrix. Pharmacokinetic parameters were determined from the raw data by WinNonLin.
# mice [11] = assay: Open-field test; assay type: in vivo, mouse
# mice [12] = assay: NIH test; assay type: in vivo, mouse; details: acute, 50 mg/kg
# [13] = test system: histone H3 lysine 9 acetylation; assay: Histone H3K9 acetylation in vivo (Western blot, ChIP); set-up: species or system mouse
smiles,measurement,setting,value
"O=C(NO)c1cnc(NC2(c3ccccc3)CC2)nc1 [Compound 73, N-hydroxy-2-((1-phenylcyclopropyl)amino)pyrimidine-5-carboxamide]",α-tubulin acetylation over baseline levels,"[1]; HDAC6 KO mice, identical treatment regimens",did not produce increases
same,"α-tubulin acetylation in cortex, hippocampus, DRN, cerebellum","[1]; wild-type mice, 24 h, 4 h, 30 m before sacrifice, compound 73 5 mg/kg, compound 101 50 mg/kg",significant increases
same,"time in the interaction zone versus vehicle, defeated mice","mice [2]; 20 days treatment, fluoxetine 20 mg/kg, compound 101 50 mg/kg",significantly higher
same,percentage of resilient mice,"mice [2]; after CSD, fluoxetine 20 mg/kg, compound 101 50 mg/kg",81%
same,time spent in the corner zones,mice [2]; versus vehicle,decrease
same,change in histone H3K9 acetylation,[3],no significant change
same,behavioral changes / time in the open arms of the maze,mice [4],neither compound 73 nor compound 101 produced behavioral changes
same,number of marbles buried,mice [5],significantly reduced
same,acetylated (lysine 40) fraction of α-tubulin,[6],increases
same,immobility in TST,[7]; 5 mg/kg,No significant effect
same,activity in TST two hours after the injection,"[7]; 20 mg/kg citalopram, 50 mg/kg compound 73",still had significant activity
same,immobility in TST,"[7]; 50 mg/kg i.p., 30 minutes",Significant reductions
same,anti-immobility effect in HDAC6 KO mice,"[7]; C57BL/6J background, versus WT littermates",no significant effect
same,anti-immobility effects in C57BL/6J WT mice,"[7]; mouse, in vivo",still significant
same,body weight gain,[8],no significant effect
same,α-tubulin acetylation in whole brain lysates,[9],significant increases
same,Kp,"[10]; C57BL/6J, intraperitoneal, read-out: AUCBrain/AUCplasma",1.22
same,concentration at 30 min,"[10]; C57BL/6J, plasma, intraperitoneal, 5 mg/kg, read-out: 30 min plasma concentration (ng/ml) - 5 mg/kg",89 ng/mL
same,concentration at 30 min,"[10]; C57BL/6J, plasma, intraperitoneal, 50 mg/kg, read-out: 30 min plasma concentration (ng/ml) - 50 mg/kg",515 ng/mL
same,Cmax,"[10]; C57BL/6J, plasma, ip, 5 mg/kg, mice, acute i.p. dosing, read-out: Cmax",494 ng/mL
same,half-life,"[10]; C57BL/6J, plasma, ip, mice, acute i.p. dosing, read-out: T½ plasma (converted)",12 min
same,Kp,"[10]; intraperitoneal, read-out: AUCBrain/AUCplasma ratio",> 1
same,concentration at 30 min,"[10]; plasma, intraperitoneal, acute 50 mg/kg injection, read-out: plasma level at t=30 minutes",515 ng/mL and 1.9 µM
same,concentration at 2 h,"[10]; plasma, intraperitoneal, read-out: plasma concentration after two hours",< 10 ng/mL
same,half-life,"[10]; plasma, intraperitoneal, read-out: plasmatic half-life",12 min
same,exploratory activity in novel open-field arena,"mice [11]; acute, compounds 73, 101 50 mg/kg, tubastatin A 10 mg/kg",hyperlocomotor effects
same,distance in the center of the open field,"mice [11]; mouse, in vivo",602±96 beam breaks
same,latency to eat in the NIH test,mice [12],significantly decreased
same,"histone H3K9 acetylation enrichment at promoter DNA (cFOS, BDNF promoter 4), ChIP","[13]; hippocampus, repeated i.p., compound 73 5 mg/kg, sodium butyrate 1.2 g/kg",no concurrent changes
same,acetylation of histone 3 at lysine 9 in Western blot,[13]; in vivo treatment,did not significantly alter
